Source: patent publication US9139587B2, “N1-pyrazolospiroketone acetyl-CoA carboxylase inhibitors” (Pfizer Inc., priority 2009, dated 2015)
pIC50: −log10 of the molar value.

Experiments:
[1] = target: T1, recombinant human ACC1 (rhACC1) (Homo sapiens, UniProt Q13085, DEL44-44); experiment: recombinant hACC1 Transcreener assay (direct inhibition of ACC1 activity); assay type: biochemical; settings: Transcreener ADP detection FP assay, 50 μM ATP, 30 μM acetyl-CoA, 120 min at 25° C.
T1 construct: recombinant baculovirus containing full length human ACC1 cDNA; made in house; host or cells: SF9 insect cells (baculovirus)
Method: For example direct inhibition of ACC activity, for the compound of Formula (1) was determined using preparations of recombinant human ACC1 (rhACC1) and recombinant human ACC2 (rhACC2). Representative sequences of the recombinant human ACC1 and ACC2 that can be used in the assay are provided in FIG. 1 (SEQ ID NO. 1) and FIG. 2 (SEQ. ID NO. 2), respectively. Preparation of rhACC1. Two liters of SF9 cells, infected with recombinant baculovirus containing full length human ACC1 cDNA, were suspended in ice-cold lysis buffer (25 mM Tris, pH 7.5; 150 mM NaCl; 10% glycerol; 5 mM imidazole (EMD Bioscience; Gibbstown, N.J.); 2 mM TCEP (BioVectra; Charlottetown, Canada); Benzonase nuclease (10000 U/100 g cell paste; Novagen; Madison, Wis.); EDTA-free protease inhibitor cocktail (1 tab/50 mL; Roche Diagnostics; Mannheim, Germany). Cells were lysed by 3 cycles of freeze-thaw and centrifuged at 40,000×g for 40 minutes (4° C.). Supernatant was directly loaded onto a HisTrap FF crude column (GE Healthcare; Piscataway, N.J.) and eluted with an imidazole gradient up to 0.5 M over 20 column volumes (CV). ACC1-containing fractions were pooled and diluted 1:5 with 25 mM Tris, pH 7.5, 2 mM TCEP, 10% glycerol and direct loaded onto a CaptoQ (GE Healthcare) column and eluted with an NaCl gradient up to 1 M over 20 CV's. Phosphate groups were removed from purified ACC1 by incubation with lambda phosphatase (100 U/10 μM target protein; New England Biolabs; Beverly, Mass.) for 14 hours at 4° C.; okadaic acid was added (1 μM final concentration; Roche Diagnostics) to inhibit the phosphatase. Purified ACC1 was exchanged into 25 mM Tris, pH 7.5, 2 mM TCEP, 10% glycerol, 0.5 M NaCl by 6 hour dialysis at 4° C. Aliquots were prepared and frozen at −80° C. […] The final conditions for the assay were 50 mM HEPES, pH 7.2, 10 mM MgCl2, 7.5 mM tripotassium citrate, 2 mM DTT, 0.1 mg/mL BSA, 30 μM acetyl-CoA, 50 μM ATP, and 10 mM KHCO3 Typically, a 10 μl reaction was run for 120 min at 25° C., and 10 μl of Transcreener stop and detect buffer was added and the combination incubated at room temp for an additional 1 hour. The data was acquired on a Envision Fluorescence reader (Perkinelmer) using a 620 excitation Cy5 FP general dual mirror, 620 excitation Cy5 FP filter, 688 emission (S) and a 688 (P) emission filter.

[2] = target: T2, recombinant human ACC2 (rhACC2) (Homo sapiens, UniProt O00763, V2141I); experiment: recombinant hACC2 Transcreener assay (direct inhibition of ACC2 activity); assay type: biochemical; settings: Transcreener ADP detection FP assay, 50 μM ATP, 30 μM acetyl-CoA, 50 min at 25° C.
T2 construct: a full length Cytomax clone of ACC2 was purchased from Cambridge Bioscience Limited; made in house; host or cells: CHO cells (tetracycline-induced, pcDNA5 FRT TO-TOPO)
Method: For example direct inhibition of ACC activity, for the compound of Formula (1) was determined using preparations of recombinant human ACC1 (rhACC1) and recombinant human ACC2 (rhACC2). Representative sequences of the recombinant human ACC1 and ACC2 that can be used in the assay are provided in FIG. 1 (SEQ ID NO. 1) and FIG. 2 (SEQ. ID NO. 2), respectively.
[3] Preparation of rhACC2. Human ACC2 inhibition was measured using purified recombinant human ACC2 (hrACC2). Briefly, a full length Cytomax clone of ACC2 was purchased from Cambridge Bioscience Limited and was sequenced and subcloned into PcDNA5 FRT TO-TOPO (Invitrogen, Carlsbad, Calif.). The ACC2 was expressed in CHO cells by tetracycline induction and harvested in 5 liters of DMEM/F12 with glutamine, biotin, hygromycin and blasticidin with 1 μg/mL tetracycline (Invitrogen, Carlsbad, Calif.). The conditioned medium containing ACC2 was then applied to a Softlink Soft Release Avidin column (Promega, Madison, Wis.) and eluted with 5 mM biotin. 4 mgs of ACC2 were eluted at a concentration of 0.05 mg/mL (determined by A280) with an estimated purity of 95% ([…]). The purified ACC2 was dialyzed in 50 mM Tris, 200 mM NaCl, 4 mM DTT, 2 mM EDTA, and 5% glycerol. The pooled protein was frozen and stored at −80° C., with no loss of activity upon thawing. For measurement of ACC2 activity and assessment of ACC2 inhibition, test compounds were dissolved in DMSO and added to the rhACC2 enzyme as a 5× stock with a final DMSO concentration of 1%.
[4] Measurement of human ACC2 inhibition. hACC2 was assayed in a Costar #3676 (Costar, Cambridge, Mass.) 384-well plate using the Transcreener ADP detection FP assay kit (Bellbrook Labs, Madison, Wisconsin) using the manufacturer's recommended conditions for a 50 uM ATP reaction. The final conditions for the assay were 50 mM HEPES, pH 7.2, 5 mM MgCl2, 5 mM tripotassium citrate, 2 mM DTT, 0.1 mg/mL BSA, 30 μM acetyl-CoA, 50 μM ATP, and 8 mM KHCO3 Typically, a 10 μl reaction was run for 50 min at 25° C., and 10 μl of Transcreener stop and detect buffer was added and the combination incubated at room temp for an additional 1 hour. The data was acquired on an Envision Fluorescence reader (Perkinelmer) using a 620 excitation Cy5 FP general dual mirror, 620 excitation Cy5 FP filter, 688 emission (S) and a 688 (P) emission filter.

| pIC50 [1] | pIC50 [2] | SMILES |
| --- | --- | --- |
| 6.82 | 7.19 | CC(C)(C)n1ncc2c1C(=O)CC1(CCN(C(=O)c3cc(-c4cccnc4)[nH]n3)CC1)C2 [Example 11A-29] |
| 7.16 | 7.29 | CC(C)n1ncc2c1C(=O)CC1(CCN(C(=O)c3ccc4cn[nH]c4c3)CC1)C2 [Example 2A-68] |
| 6.69 | 6.86 | CC(C)(C)n1ncc2c1C(=O)CC1(CCN(C(=O)c3ccn4ccnc4c3)CC1)C2 [Example 11A-67] |
| 5.03 | 5.63 | CC(C)(C)n1ncc2c1C(=O)CC1(CCN(C(=O)c3ccc(N4CCOCC4)cn3)CC1)C2 [Example 11A-57] |
| 7.43 | 7.54 | CC(C)(C)n1ncc2c1C(=O)CC1(CCN(C(=O)c3ccc4[nH]cnc4c3)CC1)C2 [Example 2A-32] |
| 5.42 | 5.90 | CC(C)(C)n1nc(C#N)c2c1C(=O)CC1(CCN(C(=O)c3ccc4[nH]ncc4c3)CC1)C2 [Example 2A-78] |
| 6.73 | 7.53 | CC(C)n1ncc2c1C(=O)CC1(CCN(C(=O)c3ccc4cnn(C)c4c3)CC1)C2 [Example 2A-10] |
| 7.24 | 7.66 | CC(C)n1ncc2c1C(=O)CC1(CCN(C(=O)c3cnc4cc[nH]c4c3)CC1)C2 [Example 2A-19] |
| 6.97 | 7.52 | CC(C)(C)n1ncc2c1C(=O)CC1(CCN(C(=O)c3cc(F)c4[nH]ncc4c3)CC1)C2 [Example 2A-44] |
| 6.23 | 6.51 | Cc1ccn2cc(C(=O)N3CCC4(CC3)CC(=O)c3c(cnn3C(C)(C)C)C4)nc2c1 [Example 11A-27] |
| 6.75 | 7.05 | CC(C)(C)n1ncc2c1C(=O)CC1(CCN(C(=O)c3cnc4[nH]ncc4c3)CC1)C2 [Example 2A-41] |
| 4.80 | 5.31 | COCCn1ncc2c1C(=O)CC1(CCN(C(=O)c3ccc(Cl)c(C)c3)CC1)C2 [Example 2A-8] |
| 6.15 | 6.58 | O=C1CC2(CCN(C(=O)c3ccc4[nH]ncc4c3)CC2)Cc2cnn(C3COC3)c21 [Example 9A-1, 1′-(1H-indazole-5-carbonyl)-1-(oxetan-3-yl)-4,6-dihydrospiro[indazole-5,4′-piperidin]-7(1H)-one] |
| 7.13 | 7.29 | CC(C)n1ncc2c1C(=O)CC1(CCN(C(=O)c3cc(Cl)c4cn[nH]c4c3)CC1)C2 [Example 2A-65] |
| 6.06 | 6.82 | CC(C)(C)n1ncc2c1C(=O)CC1(CCN(C(=O)c3ccc(-n4cncn4)cc3)CC1)C2 [Example 11A-72] |
| 6.52 | 6.83 | CC(C)(C)n1ncc2c1C(=O)CC1(CCN(C(=O)c3cnc4ccnn4c3N)CC1)C2 [Example 2A-43] |
| 6.51 | 7.04 | CC(C)n1ncc2c1C(=O)CC1(CCN(C(=O)c3ccc4c(c3)CC(=O)N4)CC1)C2 [Example 2A-27] |
| 7.43 | 7.98 | CC(C)(C)n1ncc2c1C(=O)CC1(CCN(C(=O)c3cccc(-c4c[nH]cn4)c3)CC1)C2 [Example 11A-7] |
| 7.63 | 7.77 | CC(C)(C)n1ncc2c1C(=O)CC1(CCN(C(=O)c3ccc4cn[nH]c4c3)CC1)C2 [Example 11A-74] |
| 7.10 | 7.39 | CC(C)n1ncc2c1C(=O)CC1(CCN(C(=O)c3cc4ncccc4[nH]3)CC1)C2 [Example 11A-48] |

The next lines start with the molecule.

| SMILES | pIC50 [1] | pIC50 [2] |
| --- | --- | --- |
| CC(C)n1ncc2c1C(=O)CC1(CCN(C(=O)c3cc4ccccn4c3)CC1)C2 [Example 11A-43] | 6.84 | 7.34 |
| CC(C)n1ncc2c1C(=O)CC1(CCN(C(=O)c3c(O)cnc4ccccc34)CC1)C2 [Example 2A-70] | 5.01 | 5.42 |
| CC(C)n1ncc2c1C(=O)CC1(CCN(C(=O)c3ccc4ncccc4c3O)CC1)C2 [Example 2A-69] | 6.91 | 7.37 |
| Cc1cc(C(=O)N2CCC3(CC2)CC(=O)c2c(cnn2C2CCOC2)C3)ccc1Cl (stereo not drawn) [Example 1A-5] | 6.10 | 6.90 |
| CC(C)n1ncc2c1C(=O)CC1(CCN(C(=O)c3ccnc(-c4cc[nH]n4)c3)CC1)C2 [Example 11A-18] | 6.63 | 7.25 |
| CC(C)n1ncc2c1C(=O)CC1(CCN(C(=O)c3ccc4cnccc4c3O)CC1)C2 [Example 2A-72] | 6.22 | 6.54 |
| CC(C)n1ncc2c1C(=O)CC1(CCN(C(=O)c3ccn4cncc4c3)CC1)C2 [Example 11A-60] | 6.39 | 6.77 |
| Cc1cc(C(=O)N2CCC3(CC2)CC(=O)c2c(cnn2C(C)c2ccccc2)C3)ccc1Cl (stereo not drawn) [Example 2A-6] | 6.19 | 7.05 |
| CC(C)n1ncc2c1C(=O)CC1(CCN(C(=O)c3cnc(N4CCOCC4)nc3)CC1)C2 [Example 2A-66] | 4.52 | 4.85 |
| Cc1nc2c(F)cc(C(=O)N3CCC4(CC3)CC(=O)c3c(cnn3C(C)C)C4)cc2[nH]1 [Example 2A-54] | 6.67 | 7.29 |
| CC(C)(C)n1nc(Br)c2c1C(=O)CC1(CCN(C(=O)c3cc(Br)c4[nH]c(=O)[nH]c4c3)CC1)C2 [Example 13A-1, 3-bromo-1′-(7-bromo-2-oxo-2,3-dihydro-1H-benzo[d]imidazole-5-carbonyl)-1-tert-butyl-4,6-dihydrospiro[indazole-5,4′-piperidin]-7(1H)-one] | 6.58 | 6.50 |
| Cc1cc(C(=O)N2CCC3(CC2)CC(=O)c2c(cnn2C(C)C)C3)n(-c2cccnc2)n1 [Example 11A-4] | 4.71 | 5.24 |
| CC(C)n1nc(C#N)c2c1C(=O)CC1(CCN(C(=O)c3ccc4[nH]cnc4c3)CC1)C2 [Example 8A-1, 1′-(1H-benzo[d]imidazole-5-carbonyl)-1-isopropyl-7-oxo-1,4,6,7-tetrahydrospiro[indazole-5,4′-piperidine]-3-carbonitrile] | 5.12 | 5.78 |
| Cc1ncc(C(=O)N2CCC3(CC2)CC(=O)c2c(cnn2C(C)C)C3)c(N)n1 [Example 2A-15] | 5.69 | 6.11 |
| CC(C)n1ncc2c1C(=O)CC1(CCN(C(=O)c3c[nH]c4ncccc34)CC1)C2 [Example 2A-71] | 5.97 | 6.41 |
| CC(C)n1ncc2c1C(=O)CC1(CCN(C(=O)c3cnc4ccccc4n3)CC1)C2 [Example 2A-61] | 5.63 | 5.66 |
